These results are taken from publication PMC10424185, “C-2 Thiophenyl Tryptophan Trimers Inhibit Cellular Entry of SARS-CoV-2 through Interaction with the Viral Spike (S) Protein” (Journal of Medicinal Chemistry, 2023).

For assay [1], the system named is SARS-CoV-2 virus carrying the D614G S mutation. Type of assay: cell-based.
For assay [2] the test system is unchanged. Type of assay: cell-based. This is another data set of the same source.

As for `NCCOCCOCCC(=O)NCC(=O)NC(CCC(=O)NC(Cc1c(Sc2ccc([N+](=O)[O-])cc2)[nH]c2ccccc12)C(=O)O)(CCC(=O)NC(Cc1c(Sc2ccc([N+](=O)[O-])cc2)[nH]c2ccccc12)C(=O)O)CCC(=O)NC(Cc1c(Sc2ccc([N+](=O)[O-])cc2)[nH]c2ccccc12)C(=O)O` (stereo not shown) [Compound 63], the “relative virus production vs mock-treatment, A549-ACE2 cells” value in assay [1] was 0.035 ± 0.032. The “relative virus production vs mock-treatment, VeroE6-TMPRSS2 cells” value in assay [2] was 0.059 ± 0.018.
The matching figures for `CCC(CC)COC(=O)[C@H](C)N[P@](=O)(OC[C@H]1O[C@@](C#N)(c2ccc3c(N)ncnn23)[C@H](O)[C@@H]1O)Oc1ccccc1` [remdesivir, reference compound]: 0.002 ± 0.002 and 0.002 ± 0.001.
